{"source": "patent US20230257347A1", "about": "(priority 2020, published 2023)", "key": {"[1]": {"target": "T1, human 5-HT transporter (hSERT) (Homo sapiens, UniProt P31645)", "T1 construct": "expressed in transfected cells; host or cells: CHO", "T1 sequence (P31645 whole entry)": "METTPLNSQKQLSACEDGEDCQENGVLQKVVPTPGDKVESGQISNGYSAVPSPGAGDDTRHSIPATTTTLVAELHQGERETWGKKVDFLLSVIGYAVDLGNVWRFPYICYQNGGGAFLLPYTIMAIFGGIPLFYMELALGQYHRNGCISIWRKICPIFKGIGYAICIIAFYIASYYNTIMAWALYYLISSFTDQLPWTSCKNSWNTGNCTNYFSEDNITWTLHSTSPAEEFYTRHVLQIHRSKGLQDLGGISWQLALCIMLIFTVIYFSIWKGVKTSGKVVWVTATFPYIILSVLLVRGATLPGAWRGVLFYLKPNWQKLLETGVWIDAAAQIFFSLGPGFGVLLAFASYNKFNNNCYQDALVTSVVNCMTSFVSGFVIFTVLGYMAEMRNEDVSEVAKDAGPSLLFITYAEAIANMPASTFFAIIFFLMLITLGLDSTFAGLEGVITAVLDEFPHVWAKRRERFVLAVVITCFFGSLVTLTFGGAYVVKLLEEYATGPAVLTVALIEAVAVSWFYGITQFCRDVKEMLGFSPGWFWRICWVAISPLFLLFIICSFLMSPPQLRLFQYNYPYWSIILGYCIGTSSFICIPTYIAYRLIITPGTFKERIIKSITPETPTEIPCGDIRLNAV", "assay": "hSERT antagonist radioligand assay ([3H]imipramine), CHO cells", "type": "binding", "source_text": "Interactions with these transporters were therefore separately measured using two additional types of assays: an antagonist radioligand assay of inhibition of the human 5-HT transporter (hSERT) expressed in CHO cells (Tatsumi, M. et al. (1999), Eur. J. Pharmacol., 368: 277-283) and an assay measuring release of [^3H] […] While the former is sensitive to classic reuptake inhibition, the latter can detect the effects of substrates, which also induce release. Specific assay steps and reference compounds are given below for each assay type.\nThree tryptamine derivatives were evaluated for inhibiting the human 5-HT transporter (hSERT) as expressed in CHO cells using an antagonist radioligand assay (Tatsumi, M. et al. 1999, Eur. J. Pharmacol., 368: 277-283). […] Test compounds were assayed in two trials at 3.0E-10, 3.0E-9, 3.0E-8, 3.0E-7, 3.0E-6, and 3.0E-5 M."}, "MAOA": {"target": "T2, MAOA (Homo sapiens, UniProt P21397)", "T2 sequence (P21397 1-527)": "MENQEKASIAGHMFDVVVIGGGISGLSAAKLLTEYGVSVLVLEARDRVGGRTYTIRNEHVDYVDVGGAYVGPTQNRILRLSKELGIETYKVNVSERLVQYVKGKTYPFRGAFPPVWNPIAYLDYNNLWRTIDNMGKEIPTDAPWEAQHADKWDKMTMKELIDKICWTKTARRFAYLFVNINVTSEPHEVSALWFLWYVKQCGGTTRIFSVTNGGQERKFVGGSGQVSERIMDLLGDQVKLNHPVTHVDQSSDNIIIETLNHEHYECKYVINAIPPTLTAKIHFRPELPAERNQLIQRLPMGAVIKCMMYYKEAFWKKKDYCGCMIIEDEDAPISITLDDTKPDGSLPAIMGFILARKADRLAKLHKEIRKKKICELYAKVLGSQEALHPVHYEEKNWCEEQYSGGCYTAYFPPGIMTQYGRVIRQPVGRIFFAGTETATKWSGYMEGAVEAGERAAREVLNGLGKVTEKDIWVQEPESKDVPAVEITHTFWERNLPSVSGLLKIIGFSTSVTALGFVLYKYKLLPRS", "conditions": "cited from earlier work; for IC50: read-out: MAOA IC50, Table 10, Source (1) Wagmann et al. 2017"}, "[2]": {"target": "T3, Nicotinic acetylcholine Receptor α4 β2 (nAChR(a4/b2)) (Homo sapiens, UniProt P17787+P43681)", "T3 construct": "expressed in transfected cells", "T3 sequence (P43681 29-627 limits assumed)": "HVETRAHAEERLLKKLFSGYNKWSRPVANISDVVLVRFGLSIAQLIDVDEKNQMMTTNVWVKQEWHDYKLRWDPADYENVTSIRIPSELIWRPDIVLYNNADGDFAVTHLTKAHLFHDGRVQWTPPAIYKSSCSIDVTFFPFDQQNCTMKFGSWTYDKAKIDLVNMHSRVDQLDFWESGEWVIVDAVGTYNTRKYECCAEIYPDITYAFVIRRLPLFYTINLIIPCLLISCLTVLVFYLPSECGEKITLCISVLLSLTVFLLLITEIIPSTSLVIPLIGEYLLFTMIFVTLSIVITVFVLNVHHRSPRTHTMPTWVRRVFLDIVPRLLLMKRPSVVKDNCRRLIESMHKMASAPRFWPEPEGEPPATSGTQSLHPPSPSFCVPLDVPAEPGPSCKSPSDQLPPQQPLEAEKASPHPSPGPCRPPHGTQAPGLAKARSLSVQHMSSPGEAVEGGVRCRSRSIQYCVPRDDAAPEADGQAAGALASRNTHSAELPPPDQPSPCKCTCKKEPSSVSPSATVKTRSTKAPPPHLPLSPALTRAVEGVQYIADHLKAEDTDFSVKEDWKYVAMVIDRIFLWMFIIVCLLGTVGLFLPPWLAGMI", "T3 sequence (P17787 26-502)": "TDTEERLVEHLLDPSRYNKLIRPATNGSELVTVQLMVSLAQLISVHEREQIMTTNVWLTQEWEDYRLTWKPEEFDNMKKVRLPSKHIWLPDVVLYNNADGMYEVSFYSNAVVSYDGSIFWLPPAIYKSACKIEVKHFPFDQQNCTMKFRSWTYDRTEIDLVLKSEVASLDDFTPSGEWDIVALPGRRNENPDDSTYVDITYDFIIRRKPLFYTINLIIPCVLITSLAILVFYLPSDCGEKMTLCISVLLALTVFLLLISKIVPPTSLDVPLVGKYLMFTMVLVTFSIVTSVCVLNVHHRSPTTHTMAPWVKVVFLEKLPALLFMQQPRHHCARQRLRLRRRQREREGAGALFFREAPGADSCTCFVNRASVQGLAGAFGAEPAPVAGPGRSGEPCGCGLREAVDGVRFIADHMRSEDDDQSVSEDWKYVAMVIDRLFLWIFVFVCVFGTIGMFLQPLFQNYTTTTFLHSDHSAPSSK", "assay": "cell-based", "conditions": "nAChR(a4/b2), Ion Channel, blocker; read-out: IC50 (μM) Antag./Blocker/Inhibitor"}, "human DAT": {"target": "T4, human DAT (Homo sapiens, UniProt Q01959)", "T4 construct": "expressed in transfected cells", "T4 sequence (Q01959 whole entry)": "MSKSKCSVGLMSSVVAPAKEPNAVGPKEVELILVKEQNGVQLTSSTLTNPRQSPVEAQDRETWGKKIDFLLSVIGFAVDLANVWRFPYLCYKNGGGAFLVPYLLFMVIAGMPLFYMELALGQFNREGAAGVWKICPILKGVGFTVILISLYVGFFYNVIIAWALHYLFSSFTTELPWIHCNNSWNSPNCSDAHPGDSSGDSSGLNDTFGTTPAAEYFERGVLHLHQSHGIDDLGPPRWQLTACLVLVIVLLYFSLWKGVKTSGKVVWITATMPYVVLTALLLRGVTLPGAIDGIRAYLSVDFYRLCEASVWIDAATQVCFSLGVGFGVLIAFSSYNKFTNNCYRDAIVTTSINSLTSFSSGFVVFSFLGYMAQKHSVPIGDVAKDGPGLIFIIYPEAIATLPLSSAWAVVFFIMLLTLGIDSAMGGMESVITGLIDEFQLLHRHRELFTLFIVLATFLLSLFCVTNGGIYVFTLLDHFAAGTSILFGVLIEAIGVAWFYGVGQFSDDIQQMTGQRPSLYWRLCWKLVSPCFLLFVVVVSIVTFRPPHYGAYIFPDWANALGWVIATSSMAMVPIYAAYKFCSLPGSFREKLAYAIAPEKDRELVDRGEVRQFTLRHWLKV", "assay": "hDAT release of [3H]dopamine, CHO cells", "type": "cell-based", "conditions": "for DAT/SERT ratio: (DAT EC50)^−1/(SERT EC50)^−1, larger numbers indicate higher DAT selectivity"}, "human SERT": {"target": "T5, human SERT (Homo sapiens, UniProt P31645)", "T5 construct": "expressed in transfected cells", "T5 sequence (P31645 whole entry)": "as the sequence (P31645 whole entry) above", "assay": "hSERT release of [3H]serotonin, CHO cells", "type": "cell-based"}, "[3]": {"target": "T6, Monoamine oxidase type A (MAOA) (Homo sapiens, UniProt P21397)", "T6 construct": "purchased Sigma", "T6 sequence (P21397 1-527)": "T2 sequence (P21397 1-527)", "assay": "Enzymatic assay, MAOA (kynuramine substrate)", "type": "biochemical", "conditions": "for Hill: Hill of MAOA inhibition curve, Original data; for MAOA inhibition (MAOI or not, in words): original data"}, "neuritogenesis": {"test_system": "neuritogenesis", "conditions": "cited from earlier work"}, "[4]": {"target": "Gamma-aminobutyric acid Receptor A (GABAA) (Homo sapiens, UniProt P14867+P47870)", "sequence (P14867 28-456)": "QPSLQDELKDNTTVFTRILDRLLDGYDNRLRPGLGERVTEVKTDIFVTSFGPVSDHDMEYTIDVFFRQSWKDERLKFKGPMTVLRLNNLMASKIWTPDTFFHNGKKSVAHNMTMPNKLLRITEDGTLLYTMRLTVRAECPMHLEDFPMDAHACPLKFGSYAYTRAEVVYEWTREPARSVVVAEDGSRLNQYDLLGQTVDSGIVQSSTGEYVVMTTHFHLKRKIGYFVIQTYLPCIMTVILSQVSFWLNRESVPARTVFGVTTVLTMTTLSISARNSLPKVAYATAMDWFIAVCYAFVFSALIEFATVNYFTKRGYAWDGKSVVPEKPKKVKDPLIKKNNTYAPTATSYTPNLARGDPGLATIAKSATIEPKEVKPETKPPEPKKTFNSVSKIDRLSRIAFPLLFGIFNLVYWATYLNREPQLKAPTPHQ", "sequence (P47870 26-512)": "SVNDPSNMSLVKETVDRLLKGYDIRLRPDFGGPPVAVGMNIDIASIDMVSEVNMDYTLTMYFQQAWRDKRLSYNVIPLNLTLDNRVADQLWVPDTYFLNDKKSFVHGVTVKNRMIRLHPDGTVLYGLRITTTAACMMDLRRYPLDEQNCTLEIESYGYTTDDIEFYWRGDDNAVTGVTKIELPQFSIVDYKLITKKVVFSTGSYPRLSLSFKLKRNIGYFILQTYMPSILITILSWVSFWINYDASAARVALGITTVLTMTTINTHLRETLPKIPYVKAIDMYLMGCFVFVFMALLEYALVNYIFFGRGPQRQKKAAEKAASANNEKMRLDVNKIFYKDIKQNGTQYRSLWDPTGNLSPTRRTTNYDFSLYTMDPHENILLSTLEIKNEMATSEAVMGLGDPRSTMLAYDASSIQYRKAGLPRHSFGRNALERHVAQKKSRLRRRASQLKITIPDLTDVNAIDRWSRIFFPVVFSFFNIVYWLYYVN", "sequence (P18507 40-475 partner)": "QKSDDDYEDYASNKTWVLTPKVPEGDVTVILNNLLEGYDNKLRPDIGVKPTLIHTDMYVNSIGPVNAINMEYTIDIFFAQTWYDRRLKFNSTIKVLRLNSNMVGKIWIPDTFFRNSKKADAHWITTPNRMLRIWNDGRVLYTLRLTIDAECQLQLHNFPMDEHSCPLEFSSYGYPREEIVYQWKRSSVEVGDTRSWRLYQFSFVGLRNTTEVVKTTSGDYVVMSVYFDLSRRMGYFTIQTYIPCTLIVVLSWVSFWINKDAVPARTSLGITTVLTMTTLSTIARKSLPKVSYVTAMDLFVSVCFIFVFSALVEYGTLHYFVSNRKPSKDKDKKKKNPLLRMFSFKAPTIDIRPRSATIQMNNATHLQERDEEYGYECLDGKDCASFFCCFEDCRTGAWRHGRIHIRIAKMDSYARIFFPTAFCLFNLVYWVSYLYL", "type": "cell-based", "conditions": "Ion Channel, blocker, read-out: IC50 (μM) Antag./Blocker/Inhibitor"}}, "note": "Read-outs that look alike come from different tables or passages of the source.", "data": [{"compound": "CNC(C)C(=O)c1c[nH]c2ccc(Br)cc12", "note": "(stereo not drawn) [drawing 184]", "values": [{"measurement": "IC50", "setting": "[1]", "result": 5600, "unit": "nM"}, {"measurement": "Ki", "setting": "[1]", "result": 2600, "unit": "nM"}]}, {"compound": "CC(N)Cc1c[nH]c2cc(F)ccc12", "note": "(stereo not drawn) [1-(6-fluoro-1H-indol-3-yl) propan-2-amine]", "values": [{"measurement": "IC50", "setting": "MAOA", "result": 1800, "unit": "nM"}]}, {"compound": "Dihydro-AY-erythroidine [reference compound]", "values": [{"measurement": "IC50", "setting": "[2]", "result": 0.682, "unit": "µM"}]}, {"compound": "CNC(C)C(=O)c1c[nH]c2ccc(Cl)cc12", "note": "(stereo not drawn) [drawing 185]", "values": [{"measurement": "IC50", "setting": "[1]", "result": 2500, "unit": "nM"}, {"measurement": "Ki", "setting": "[1]", "result": 1100, "unit": "nM"}]}, {"compound": "CNC(C)C(=O)c1c[nH]c2ccc(Br)cc12", "note": "(stereo not drawn) [drawing 187]", "values": [{"measurement": "EC50", "setting": "human DAT", "result": 2100, "unit": "nM"}, {"measurement": "DAT/SERT ratio", "setting": "human DAT", "result": 0.14}, {"measurement": "EC50", "setting": "human SERT", "result": 295, "unit": "nM"}]}, {"compound": "CC(N)Cc1c[nH]c2ccc(Cl)cc12", "note": "(stereo not drawn) [1-(5-chloro-1H-indol-3-yl) propan-2-amine]", "values": [{"measurement": "IC50", "setting": "MAOA", "result": 250, "unit": "nM"}]}, {"compound": "CCC(N)C(=O)c1c[nH]c2ccc(F)cc12", "note": "(stereo not drawn) [2-amino-1-(5-fluoro-1H-indol-3-yl) butan-1-one]", "values": [{"measurement": "IC50", "setting": "[3]", "result": "> 30000", "unit": "nM"}]}, {"compound": "CCC(N)Cc1c[nH]c2ccc(F)cc12", "note": "(stereo not drawn) [1-(5-fluoro-1H-indol-3-yl)butan-2-amine, reference compound]", "values": [{"measurement": "IC50", "setting": "[3]", "result": 2480, "unit": "nM"}, {"measurement": "Hill", "setting": "[3]", "result": 0.89}]}, {"compound": "CNC(C)Cc1ccc2c(c1)OCO2", "note": "(stereo not drawn) [MDMA, 3,4-methylenedioxymethamphetamine]", "values": [{"measurement": "EC50", "setting": "neuritogenesis; Ly et al. Cell reports 2018, Figure S3, read-out: EC50 for promoting neuritogenesis", "result": 7.41, "unit": "nM"}, {"measurement": "Emax for promoting neuritogenesis", "setting": "neuritogenesis; relative to ketamine, Ly et al. 2018", "result": "approximately twice that of ketamine"}]}, {"compound": "Cc1[nH]c2ccc(F)cc2c1CC(C)N", "note": "(stereo not drawn) [1-(5-fluoro-2-methyl-1H-indol-3-yl)propan-2-amine]", "values": [{"measurement": "IC50", "setting": "MAOA", "result": 4100, "unit": "nM"}]}, {"compound": "Picrotoxin", "values": [{"measurement": "IC50", "setting": "[4]", "result": 2.78, "unit": "µM"}]}, {"compound": "CNC(C)C(=O)c1c[nH]c2ccc(F)cc12", "note": "(stereo not drawn) [drawing 183]", "values": [{"measurement": "IC50", "setting": "[1]", "result": 3500, "unit": "nM"}, {"measurement": "Ki", "setting": "[1]", "result": 1600, "unit": "nM"}]}, {"compound": "CC(N)Cc1c[nH]c2ccc(Br)cc12", "note": "(stereo not drawn) [1-(5-bromo-1H-indol-3-yl)propan-2-amine]", "values": [{"measurement": "IC50", "setting": "MAOA", "result": 1300, "unit": "nM"}]}, {"compound": "CNC(C)C(=O)c1c[nH]c2ccc(Cl)cc12", "note": "(stereo not drawn) [drawing 188]", "values": [{"measurement": "EC50", "setting": "human DAT", "result": 865, "unit": "nM"}, {"measurement": "DAT/SERT ratio", "setting": "human DAT", "result": 0.23}, {"measurement": "EC50", "setting": "human SERT", "result": 200, "unit": "nM"}]}, {"compound": "CC(N)Cc1c[nH]c2ccc(F)cc12", "note": "(stereo not drawn) [1-(5-fluoro-1H-indol-3-yl) propan-2-amine]", "values": [{"measurement": "MAOA inhibition (MAOI or not, in words)", "setting": "MAOA; previously reported data", "result": "are MAOIs"}, {"measurement": "IC50", "setting": "MAOA", "result": 450, "unit": "nM"}]}, {"compound": "Cc1ccc2[nH]cc(CC(C)N)c2c1", "note": "(stereo not drawn) [1-(5-methyl-1H-indol-3-yl) propan-2-amine]", "values": [{"measurement": "IC50", "setting": "MAOA", "result": 1500, "unit": "nM"}]}, {"compound": "CNC(C)Cc1c[nH]c2ccc(F)cc12", "note": "(stereo not drawn) [[1-(5-fluoro-1H-indol-3-yl)propan-2-yl](methyl)amine, reference compound]", "values": [{"measurement": "IC50", "setting": "[3]", "result": 450, "unit": "nM"}, {"measurement": "Hill", "setting": "[3]", "result": 1.01}, {"measurement": "MAOA inhibition (MAOI or not, in words)", "setting": "[3]", "result": "are MAOIs"}]}, {"compound": "CC(N)Cc1c[nH]c2ccccc12", "note": "(stereo not drawn) [1-(1H-indol-3-yl)propan-2-amine]", "values": [{"measurement": "IC50", "setting": "MAOA", "result": 380, "unit": "nM"}]}, {"compound": "CNCC(=O)c1c[nH]c2ccc(F)cc12", "note": "[1-(5-fluoro-1H-indol-3-yl)-2-(methylamino)ethan-1-one, reference compound]", "values": [{"measurement": "Hill", "setting": "[3]", "result": 1.02}, {"measurement": "IC50", "setting": "[3]; Table 10, Source: Original data, read-out: MAOA IC50", "result": 3430, "unit": "nM"}, {"measurement": "MAOA inhibition (MAOI or not, in words)", "setting": "[3]", "result": "is also an MAOI"}]}, {"compound": "CNC(C)C(=O)c1c[nH]c2ccc(F)cc12", "note": "(stereo not drawn) [drawing 186]", "values": [{"measurement": "EC50", "setting": "human DAT", "result": 620, "unit": "nM"}, {"measurement": "DAT/SERT ratio", "setting": "human DAT", "result": 0.31}, {"measurement": "EC50", "setting": "human SERT", "result": 190, "unit": "nM"}]}]}
